Here are results for 3 molecules from patent EP0562497A1, “1 alpha-hydroxy vitamins D7 and D4' processes for the preparation thereof and pharmaceutical compositions” (NISSHIN FLOUR MILLING CO., LTD., priority 1992, dated 1993).

This data set deals with Female Wistar rats. As to the kind of experiment: Activity test in ovariectomized, right sciatic nerve amputated rats: femur bone density and serum calcium after 6 weeks of oral administration. It is filed as in vivo. The note with it: for Serum calcium concentration / Bone density: 5 days per week for 6 weeks; for Serum calcium concentration: blood drawn the day after final administration; for Bone density: right femur, ash weight/volume, ovariectomy and sciatic nerve amputation; for increase in bone density / increase in serum calcium concentration: in words, compared with known 1α-hydroxy vitamin D₃, summary of Table 1. An excerpt: Seventy two rats were subjected to bilateral ovariectomy and right sciatic nerve amputation. Rats were divided into 9 groups of eight animals each. Another group of eight rats was subjected to sham operation. Over a period of 6 weeks after operation, each group was orally administered either 1α-hdyroxy vitamin D₃, 1α-hydroxy vitamin D₇ or 1α-hydroxy vitamin D₄ dissolved in 0.5% ethanol/porpyleneglycol (vehicle) at the frequency of 5 days per week. The sham operated group and control group were orally administered the vehicle alone. The next day after final administration, rats were killed, blood was drawn from abdominal cave and right femur was extracted. The bone volume of femur was measured in accordance with Archimedes' principle. After heat treatment at 700°C for 24 hrs, the weight of bone ash was measured. From these measured values, the bone density (ash weight/volume) of each femur was calculated. Serum calcium concentration was determined according to usual method.

On to `C=C1/C(=C\C=C2/CCC[C@]3(C)[C@@H]([C@H](C)CC[C@H](C)C(C)C)CC[C@@H]23)C[C@@H](O)C[C@@H]1O` [1α-OH-D4, 1α-hydroxy vitamin D₄], for which the “increase in bone density” value was “much greater increase in bone density” and the “increase in serum calcium concentration” value is reported as “lesser increase in serum calcium concentration”. Further, under “0.5 µg/kg/day oral”, the Serum calcium concentration turned out to be 10.5 ± 0.2 mg/dL and the Bone density is listed as 0.576±0.006 mg/mm^3. Also, where the note is “2.5 µg/kg/day oral”, the Serum calcium concentration amounted to 11.0 ± 0.4 mg/dL and the Bone density was determined as 0.583 ± 0.003 mg/mm^3.
Consider `C=C1/C(=C\C=C2/CCC[C@]3(C)[C@@H]([C@H](C)CCCC(C)C)CC[C@@H]23)C[C@@H](O)C[C@@H]1O` [1α-OH-D3, 1α-hydroxy vitamin D₃, reference compound], for which the Serum calcium concentration by setting is: (0.02 µg/kg/day oral) 10.8 ± 0.1 mg/dL; (0.1 µg/kg/day oral) 11.0 ± 0.1 mg/dL; (0.5 µg/kg/day oral) 12.4 ± 0.2 mg/dL. Moreover, the Bone density is 0.556±0.005 mg/mm^3 (0.02 µg/kg/day oral), 0.545±0.007 mg/mm^3 (0.1 µg/kg/day oral) and 0.560±0.006 mg/mm^3 (0.5 µg/kg/day oral).
On to `C=C1/C(=C\C=C2/CCC[C@]3(C)[C@@H]([C@H](C)CC[C@@H](C)C(C)C)CC[C@@H]23)C[C@@H](O)C[C@@H]1O` [1α-OH-D7, 1α-hydroxy vitamin D₇], for which the “increase in bone density” value is recorded as “much greater increase in bone density” and the “increase in serum calcium concentration” value is on record as “lesser increase in serum calcium concentration”. Under “0.5 µg/kg/day oral”, the Serum calcium concentration is 10.5 ± 0.1 mg/dL and the Bone density is given as 0.581±0.004 mg/mm^3. Further, where the note is “2.5 µg/kg/day oral”, the Serum calcium concentration is 10.7 ± 0.3 mg/dL and the Bone density is recorded as 0.585±0.007 mg/mm^3. For the same molecule, under “12.5 µg/kg/day oral”, the Serum calcium concentration was found to be 10.9 ± 0.5 mg/dL and the Bone density is given as 0.589±0.004 mg/mm^3.
